Measurements published in patent publication US20260125357A1, “LACTATE ENHANCING COMPOUNDS AND USES THEREOF” (GLIAPHARM SA, priority 2022, published 2026).

What follows are molecules tested on primary astrocytes (assay: MTT mitochondrial activity assay in primary astrocytes). Conditions: different concentrations, after 1.5 h or 24 h.
Type: cell-based, mouse
Description: (§1) Primary cultures of cerebrocortical astrocytes were obtained from 1 to 2-day-old OF1 mouse pups (Charles River Laboratories). Briefly, cortices were isolated and minced in small pieces under a dissecting microscope. The cells were incubated for 30 min at 37° C. in a solution containing 20 U/ml papain, 1 mM L-cysteine and 10 kU/ml DNase I. After dissociation, papain activity was stopped by the addition of fetal calf serum (FCS). Single-cell suspension was then obtained by mechanical dissociation, which consisted in cells trituration in a DMEM D7777 medium supplemented with 44 mm NaHCO3, 10 ml/L antibiotic/antimycotic solution and 10% FCS. The cells were seeded at an average density of ˜10′000 cells/cm^2 on poly-D-lysine coated 96- or 12-well culture plates, depending on their use, and grown in DMEM D7777 medium supplemented with 44 mm NaHCO3, 10 ml/L antibiotic/antimycotic solution and 10% FCS at 37° C. in a humidified atmosphere containing 5% CO2/95% air. Culture medium was renewed twice a week. Cells were stimulated and harvested between DIV14 and DIV17, when confluence and cell growth were optimal.
To monitor mitochondrial activity in astrocytes, which is linked to the metabolic process of glycolysis and production of lactate, astrocytes in 96-well plates were stimulated for 24 h (37° C. 5% CO2/95% air) with the compounds of the invention ranging from 10 nM to 10 μM.
After stimulation, 5 mg/ml thiazol blue tetrazolium bromide (MTT) in D5030 medium complemented with 5 mM D-glucose and 44 mM sodium bicarbonate (pH 7.2) was added to each well, and cells were incubated for 4 h at 37° C. (5% CO2). The medium was then removed and the amount of reduced MTT, i.e formazan, solubilized in DMSO (50 μl/well) was determined using a spectrophotometer (absorbance of 570 nm).
The mitochondrial activity was monitored in MTT colorimetric assay in primary astrocytes treated with Compounds (1), (2), (3), (4) (5), (9) and (10) at different concentrations after 1.5 h (FIG. 2 A, B, D, E, F, C, H, respectively) or 24 h (FIG. 2 H, I, K, L, M, J, N, respectively).

Row | SMILES | mitochondrial activity (MTT colorimetric assay)
1 | CS(=O)(=O)c1ccc(Nc2nccc3cc(O)c(O)cc23)cc1 [Compound 5, 1-(4-methylsulfonylanilino)isoquinoline-6,7-diol] | none of the selected compounds had direct effect on mitochondrial activity
2 | COc1cc2ccnc(Nc3ccc(N4CCCC4=O)cc3)c2cc1OC [Compound 9, 1-[4-[(6,7-dimethoxy-1-isoquinolyl)amino]phenyl]pyrrolidin-2-one] | none of the selected compounds had direct effect on mitochondrial activity
3 | C=COc1ccc2c(Nc3ccc(S(C)(=O)=O)cc3)nccc2c1 [Compound 10, N-(4-methylsulfonylphenyl)-6-vinyloxy-isoquinolin-1-amine] | none of the selected compounds had direct effect on mitochondrial activity

What follows are molecules tested on primary astrocytes (assay: Extracellular medium acidification (SNARF5) assay in astrocytes). Conditions: Mus musculus, Astrocyte; astrocytes in vitro; compounds 10 nM to 30 μM; read-out: Activity (EC50 class, extracellular medium acidification SNARF5).
Type: cell-based
Description: To assess for the effect of the compounds of the invention, those were tested in primary mouse astrocytes and astrocytes differentiated from human-derived induced pluripotent stem cells (iPSCs). Secretion of lactate was measured indirectly through the acidification of extracellular medium using extracellular pH sensor SNARE-5F-(AND-6)-CAR (SNARF5) as described below.
as §1
Secretion of lactate was measured indirectly through the acidification of extracellular medium using extracellular pH sensor SNARF-5F-(AND-6)-CAR (SNARF5). After washing cells twice with stimulation medium (DMEM (D5030, Sigma), 1 mM […], and 5 mM Glucose, pH 7.4) at 37° C., cells were stimulated with compounds at a final concentration ranging from 10 nM to 30 μM in 50 μl per well of stimulation medium supplemented with 10 μM of SNARF5 (Life Technologies Corporation). Each compound was tested in two different plates for duplicates. After 30, 60 and 90 min stimulation, fluorescence was read at exc. (excitation) 480 nm/emm. (emission) 580 nm and at exc 480 nm/emm. 630 nm. The ratio of fluorescence between 630 nm and 580 emission values, which is proportional to extracellular pH, was calculated. In each plate, 8 wells were used for negative controls (DMSO 0.1%) and 8 wells were used for positive controls (CCCP 2 μM in DMSO). Results are shown as % of positive control effect (0% and 100% being activities of the Veh and positive control, respectively).

Row | SMILES | EC50 [µM]
4 | CS(=O)(=O)c1ccc(Nc2nccc3cc(O)c(O)cc23)cc1 [Compound 5, 1-(4-methylsulfonylanilino)isoquinoline-6,7-diol] | < 1
5 | CCOc1cc2ccnc(Nc3ccc(S(C)(=O)=O)cc3)c2cc1OCC [Compound 8, 6,7-diethoxy-N-(4-methylsulfonylphenyl)isoquinolin-1-amine] | < 1
6 | COc1cc2ccnc(Nc3ccc(N4CCCC4=O)cc3)c2cc1OC [Compound 9, 1-[4-[(6,7-dimethoxy-1-isoquinolyl)amino]phenyl]pyrrolidin-2-one] | < 1
7 | CS(=O)(=O)c1ccc(Nc2nccc3cc(-c4ncccn4)ccc23)cc1 [Compound 12, N-(4-methylsulfonylphenyl)-6-pyrimidin-2-yl-isoquinolin-1-amine] | < 1
8 | CS(=O)(=O)c1ccc(Nc2nccc3ccc(O)cc23)cc1 [Compound 13, 1-(4-methylsulfonylanilino)isoquinolin-7-ol] | > 1
9 | CC(=O)Nc1ccc2ccnc(Nc3ccc(S(C)(=O)=O)cc3)c2c1 [Compound 14, N-[1-(4-methylsulfonylanilino)-7-isoquinolyl]acetamide] | < 1
10 | C=Cc1cc2c(Nc3ccc(S(C)(=O)=O)cc3)nccc2cc1OC [Compound 16, 6-methoxy-N-(4-methylsulfonylphenyl)-7-vinyl-isoquinolin-1-amine] | < 1
11 | CCc1cc2c(Nc3ccc(S(C)(=O)=O)cc3)nccc2cc1OC [Compound 17, 7-ethyl-6-methoxy-N-(4-methylsulfonylphenyl)isoquinolin-1-amine] | < 1
12 | CCc1cc2c(Nc3ccc(S(C)(=O)=O)cc3)nccc2cc1O [Compound 18, 7-ethyl-1-(4-methylsulfonylanilino)isoquinolin-6-ol] | < 1
13 | COc1cc2ccnc(Nc3ccc(S(C)(=O)=O)cc3)c2cc1NCc1ccccc1 [Compound 20, N7-benzyl-6-methoxy-N1-(4-methylsulfonylphenyl)isoquinoline-1,7-diamine] | < 1
14 | COc1cc2ccnc(Nc3ccc(S(C)(=O)=O)cc3)c2cc1NCC1CC1 [Compound 21, N7-(cyclopropylmethyl)-6-methoxy-N1-(4-methylsulfonylphenyl)isoquinoline-1,7-diamine] | < 1
15 | CCCNc1cc2c(Nc3ccc(S(C)(=O)=O)cc3)nccc2cc1OC [Compound 22, 6-methoxy-N1-(4-methylsulfonylphenyl)-N7-propyl-isoquinoline-1,7-diamine] | < 1
16 | CCc1cc2ccnc(Nc3ccc(S(C)(=O)=O)cc3)c2cc1O [Compound 25, 6-ethyl-1-[(4-methanesulfonylphenyl)amino]isoquinolin-7-ol] | < 1
17 | CCOc1cc2ccnc(Nc3ccc(S(C)(=O)=O)c(F)c3)c2cc1OCC [Compound 30, 6,7-diethoxy-N-(3-fluoro-4-methanesulfonylphenyl)isoquinolin-1-amine] | < 1
18 | CCOc1cc2ccnc(Nc3ccc(S(C)(=O)=O)cc3F)c2cc1OCC [Compound 31, 6,7-diethoxy-N-(2-fluoro-4-methanesulfonylphenyl)isoquinolin-1-amine] | < 1
19 | CCOc1cc2ccnc(Nc3ccc(S(=O)(=O)C4CC4)cc3)c2cc1OCC [Compound 32, N-[4-(cyclopropanesulfonyl)phenyl]-6,7-diethoxyisoquinolin-1-amine] | < 1
20 | CS(=O)(=O)c1ccc(Nc2nccc3cc(OCCF)c(OCCF)cc23)cc1 [Compound 34, 6,7-bis(2-fluoroethoxy)-N-(4-methanesulfonylphenyl)isoquinolin-1-amine] | < 1
21 | CC(C)Oc1ccc2c(Cc3ccc(S(C)(=O)=O)cc3)nccc2c1 [Compound 35, 1-[(4-methanesulfonylphenyl)methyl]-6-(propan-2-yloxy)isoquinoline] | < 1
22 | CCCc1cc2c(Nc3ccc(S(C)(=O)=O)cc3)nccc2cc1OCC [Compound 37, 6-ethoxy-N-(4-methanesulfonylphenyl)-7-propylisoquinolin-1-amine] | < 1

The remaining lines, values ahead:

Row | EC50 [µM] | SMILES
23 | > 1 | CCOc1cc2ccnc(Nc3ccc(S(C)(=O)=O)cc3)c2cc1O [Compound 6, 6-ethoxy-1-(4-methylsulfonylanilino)isoquinolin-7-ol]
24 | > 1 | CCOc1cc2c(Nc3ccc(S(C)(=O)=O)cc3)nccc2cc1O [Compound 7, 7-ethoxy-1-(4-methylsulfonylanilino)isoquinolin-6-ol]
25 | < 1 | C=COc1ccc2c(Nc3ccc(S(C)(=O)=O)cc3)nccc2c1 [Compound 10, N-(4-methylsulfonylphenyl)-6-vinyloxy-isoquinolin-1-amine]
26 | < 1 | CC(C)Oc1ccc2c(Nc3ccc(S(C)(=O)=O)cc3)nccc2c1 [Compound 11, 6-isopropoxy-N-(4-methylsulfonylphenyl)isoquinolin-1-amine]
27 | > 1 | CCNc1ccc2ccnc(Nc3ccc(S(C)(=O)=O)cc3)c2c1 [Compound 15, N7-ethyl-N1-(4-methylsulfonylphenyl)isoquinoline-1,7-diamine]
28 | < 1 | CS(=O)(=O)c1ccc(Nc2nccc3cc(O)c(Br)cc23)cc1 [Compound 19, 7-bromo-1-(4-methylsulfonylanilino)isoquinolin-6-ol]
29 | < 1 | COc1cc2c(Nc3ccc(S(C)(=O)=O)cc3)nccc2cc1NCC1CC1 [Compound 23, N6-(cyclopropylmethyl)-7-methoxy-N1-(4-methylsulfonylphenyl)isoquinoline-1,6-diamine]
30 | < 1 | COc1cc2c(Nc3ccc(S(C)(=O)=O)cc3)nccc2cc1N1CCC1 [Compound 24, 6-(azetidin-1-yl)-7-methoxy-N-(4-methylsulfonylphenyl)isoquinolin-1-amine]
31 | < 1 | CCOc1cc2ccnc(Nc3ccc(S(=O)(=O)CC)cc3)c2cc1OCC [Compound 26, N-[4-(ethanesulfonyl)phenyl]-6,7-diethoxyisoquinolin-1-amine]
32 | < 1 | CCOc1cc2ccnc(Nc3ccc(C4COC4)cc3)c2cc1OCC [Compound 27, 6,7-diethoxy-N-[4-(oxetan-3-yl)phenyl]isoquinolin-1-amine]
33 | < 1 | CCOc1cc2ccnc(Nc3ccc(-c4ccon4)cc3)c2cc1OCC [Compound 28, 6,7-diethoxy-N-[4-(1,2-oxazol-3-yl)phenyl]isoquinolin-1-amine]
34 | < 1 | CCOc1cc2ccnc(Nc3ccc(-c4ccno4)cc3)c2cc1OCC [Compound 29, 6,7-diethoxy-N-[4-(1,2-oxazol-5-yl)phenyl]isoquinolin-1-amine]
35 | < 1 | CCOc1cc2ccnc(Nc3ccc(S(C)(=O)=O)cc3)c2cc1OCCF [Compound 33, 6-ethoxy-7-(2-fluoroethoxy)-N-(4-methanesulfonylphenyl)isoquinolin-1-amine]
36 | < 1 | CS(=O)(=O)c1ccc(Nc2nccc3cc(OCc4ccc(F)cc4)ccc23)cc1 [Compound 36, 6-[(4-fluorophenyl)methoxy]-N-(4-methanesulfonylphenyl)isoquinolin-1-amine]
